Results on one compound are retold here after US20110306579A1, “METHODS OF NEUROPROTECTION USING NEUROPROTECTIVE STEROIDS AND A VITAMIN D” (EMORY UNIVERSITY, priority 2009, published 2011).

Assay [1] relates to E18 rat primary cortical neurons. Put plainly: Morphological analysis of cortical cultures (phase contrast). It counts as cell-based. The conditions noted are these: glutamate 0.5 μM for 24 h; data not shown. The source says:
Changes in the morphology of neurons treated with different drugs in various groups were observed using a phase-contrast microscope (Nikon). Primary cultures were mainly observed for neurite outgrowth, a hallmark feature of healthy cells, and the density of healthy cells in different groups.

For a further assay, the system named is MAPK (ERK1/2). Put plainly: MAPK phosphorylation (p-ERK1/2 Western blot) in primary cortical neurons. It counts as cell-based, rat. The conditions noted are these: PROG 20 μM, 30-minute treatment. As to the method: PROG and VDH were added to the primary cultures, as described above, for 30 minutes ([…], et al., (2002) Endocrinology 143: 205-212) and the cells were lysed using RIPA lysis buffer kit (sc-24948, Santa Cruz, Calif., USA). Protein was determined in cell lysates by bicinchoninic acid (BCA) protein assay (Cat. # 23225, Pierce, Rockford, Ill., USA). Cell lysates (40 μg protein each sample) were separated under reducing and denaturing conditions by 12.5% acrylamide Criterion gel (BioRad, Hercules, Calif., USA) at 200V for 1 hour and transferred to a polyvinylidene difluoride (PVDF) membrane at 100V for 30 minutes. The non-specific binding sites of the membrane were blocked with 5% non-fat dry milk in PBS-T (phosphate buffered saline containing 0.05% Tween-20). […] Membranes were then incubated in horseradish peroxidase (HRP)-conjugated secondary antibody (Goat anti-rabbit IgG; 074-1506, KPL, Gaithersburg, Md., USA). β-actin was probed as a loading control. Blots were developed using a chemiluminescent substrate (Pierce) for 5 minutes.
In general terms: In western blotting, separated proteins are transferred to a membrane and probed.

Assay [2] concerns 20-month old Fischer 344 rats. Description: Cerebral edema analysis after cortical contusion brain injury. The class given is in vivo, rat. The note with it: 4 mg/kg. As to the method:
The methodology used is described in VanLandingham et al., Neuropharmacology, 2006, 51, 1078-1085.
Sterile surgical procedures were used to prevent animal infection. Rats (20-month old Fischer 344 rats, which are the “human” equivalent of about 60 years old) were anesthetized and maintained on isoflurane and an equivalent amount of […] and O2 for 3 min prior to surgery. After brain contusion, O2 levels were doubled compared to […] and maintained through the reainder of the surgery procedure. A stereotaxic apparatus was used to stabilize the head in a horizontal position. Core body temperature was monitored and maintained at 37° C. using a Harvard homeothermic blanket (Harvard Apparatus, Holliston, Mass.). There was no direct measure used to deterct brain temperature. Blood oxygen and heart rate were maintained using a SurgiVet monitor (SurgiVet, Waukesha, Wis.) and maintained above 90% and 340 bpm respectively. A midline incision was made and the scalp retracted. A bilateral 6-mm craniotomy was performed with surgical drill centered at 3 mm rostral to bregma. The stainless steel impactor was positioned over the MFC at 3.0 mm A/P and 0.0 M/L. These coordinates represent the MFC as described by Paxinos and Watson (The Rat Brain in Stereotaxic Coordinates, Academic Press, San Diego, 1986). The cortical injury was induced using a pneumatically controlled device (Hoffman et al., J. Neurotrauma, 1994, 11, 417-431). Brain impact duration was 0.5 s. using a 5-mm impactor tip with a velocity set at 2.125 m/s and a cortical depth of 2 mm. Following the contusion, bleeding was halded and fascia and scalp were sutured shut. After surgery, animals were allowed to recover from anesthesia on a homeothermic heating blanket in a holding cage until awake. sham surgeries controlled for anesthesia and stress. All surgical procedures were the same, except that sham rates were not given a craniotomy or cortical injury. Previous studies using craniotomy as a control found no differences between shams with or without this procedure. (Goss et al., Pharmacol. Biochem. Behay. 2003, 76(2), 231-242).
These experimental solutions were then diluted 1:1 with sterile water for a final concentration of HBC of 22.5%.
All injections were done at the same time with brain harvesting at 24 h post-injury. Rats in each group were weightd prior to treatment to ensure proper dosage. The first injection at 1 h after surgery was given intraperitoneally to ensure rapid adsorption. All subsequent injections were made subcutaneously for gradual adsorption at 6 and 24 h. Injection times and neurosteroid doses were based on previous results of neurosteroid treatment (Roof et al., Twenty First Annual Meeting of the Society for Neuroscience, Miami Beach Fla., p. 191 and He et al., Exp. Neurol. 2004, 189, 404-412). The sterioids were dissolved in vehicle (22.5% 2-hydroxypropyl-b-cyclodextrin solution) at 4 mg/kg. The sham group received no treatment and injury control group received vehicle only.
At 24 h after traumatic brain injury flresh brains were extracted from the skull and the dorsal cerebrum was separated along the line of the lateral fissure. Four 3-mm coronal sections were cut rostral to caudal, placed in pre-weighed 1.5 mL tubes and re-weighed (wet weight). Tubes were then left uncapped and placed in a vacuum oven set at 60° C. with an atmospheric pressure of 0.3 for 48 h. Following tube recapping, the tissue samples were again weighed (dry weight). Cerebral edema (% water content) was determined as the difference in wet and dry weights divided by wet weight (Roof and Stein Restor. Neurol. Ncurosci., 1992, 4, 425-427). Edema measures are reflective of the difference inwater content between at the average of the two most rostral (injury region) segments and most caudal (occipital cortex) segments of the dorsal sections of the brain.

The subject of assay [3] is 20-month-old male Fischer 344 rats. Put plainly: Spontaneous locomotor activity (open field) after TBI. The class given is in vivo, rat. The note with it: 72 hours after injury; normalized to sham.
Description: The animals in this study were separated into two groups, vitamin D normal (D-normal) and vitamin D deficient (D-deficient). […] Animals in the D-deficient group were maintained on the diet for at least 21 days prior to surgery. […] For this same reason the null diet was not altered in any other way, and the rats assigned to the D-deficient group were maintained on it until they were killed for harvesting of brain tissue. Since vitamin D is activated by UVB light (280-315 nm wavelength), the overhead lights were modified to not produce radiation in this range.
Animals dehydrated due to blood loss were given 3 mL of lactated Ringer's solution subcutaneously within 6 hours of injury.
Animals were assigned to D-normal or D-deficicnt groups. […] The same assignment was followed for both 24-hour and 72-hour survival groups. […] All drug treatments were dissolved in vehicle, and injection volume was equally proportional to each animal's weight across all groups. The intact sham (SHAM) groups served to provide baseline data and therefore received no injury or injections.
In addition to molecular measures of inflammatory cytokines, the behavioral effects of the various treatments were examined. Since this study was limited to the short term effects on inflammation, only short-term Spontaneous Locomotor Activity was used.

For `CC(=O)[C@H]1CCC2C3CCC4=CC(=O)CC[C@]4(C)C3CC[C@@]21C` (some centres unmarked) [progesterone], the “morphology of neurons (neuronal processes, number of neurons) after glutamate” value in assay [1] was “rescued neurons”. The “increase in p-ERK1/2 level compared to control group” value in the assay with MAPK (ERK1/2) is listed as 2 ×. Moreover, the “edema compared to subjects treated with vehicle” value in assay [2] (24 hours post brain injury) is “decrease in edema”. Further, the “mean % difference edema” value in assay [2] (brain tissue 24 hours post brain injury, i.p. at 1 h, s.c. at 6 and 24 h) is on record as 2.0%. The “spontaneous locomotor activity (total distance, resting, stereotypy, movement time)” value in assay [3] is “little or no benefit”.
